Values of other authors in PubChem BioAssay AID1259409 (Chemical Carcinogenesis Research Information System (CCRIS), 2018).

Tested on: rodent chemically induced tumor inhibition, incidence and multiplicity
Experiment: CCRIS tumor inhibitor studies

Q: Which “tumour outcome (control, treated, inhibition, significance)” value (Carcinogen: CYCLOPHOSPHAMIDE, 50-18-0, Dose [Inhibitor]: 12 MG/KG BW IN DRINKING WATER 5/WK FOR 20 MO SIMULTANEOUSLY WITH CARCINOGEN TREATMENT (STUDY DURATION: 20 MO), Route [Inhibitor]: ORAL, Species: RAT, Strain/Sex: SPRAGUE-DAWLEY/MALE, Target Tissue: Type of Lesion: NERVOUS TISSUE: NEOPLASM, Dose [Carcinogen]: 2.5 MG/KG BW IN DRINKING WATER 5/WK FOR 20 MO, Promoter: NONE USED) does the source give for `O=S(=O)(O)CCSSCCS(=O)(=O)O` here?
A: 14%, 15%, -7%, not calculated

Q: And the “tumour outcome (control, treated, inhibition, significance)” value (Carcinogen: CYCLOPHOSPHAMIDE, 50-18-0, Dose [Inhibitor]: 12 MG/KG BW IN DRINKING WATER 5/WK FOR 20 MO SIMULTANEOUSLY WITH CARCINOGEN TREATMENT (STUDY DURATION: 20 MO), Route [Inhibitor]: ORAL, Species: RAT, Strain/Sex: SPRAGUE-DAWLEY/MALE, Target Tissue: Type of Lesion: URINARY BLADDER: TUMOR, Dose [Carcinogen]: 2.5 MG/KG BW IN DRINKING WATER 5/WK FOR 20 MO, Promoter: NONE USED)?
A: 30%, 12%, 60%, p>0.0005*

Q: What about the “tumour outcome (control, treated, inhibition, significance)” value (Carcinogen: CYCLOPHOSPHAMIDE, 50-18-0, Dose [Inhibitor]: 12 MG/KG BW IN DRINKING WATER 5/WK FOR DURATION OF STUDY SIMULTANEOUSLY WITH CARCINOGEN TREATMENT (STUDY DURATION: LIFE), Route [Inhibitor]: ORAL, Species: RAT, Strain/Sex: SPRAGUE-DAWLEY/MALE, Target Tissue: Type of Lesion: URINARY BLADDER: PAPILLOMA, CARCINOMA, Dose [Carcinogen]: 2.5 MG/KG BW IN DRINKING WATER 5/WK FOR DURATION OF STUDY, Promoter: NONE USED) of the same molecule?
A: 32/100 (32%), 7/50 (14%), 56%, p<0.00005*

Q: What about the “tumour outcome (control, treated, inhibition, significance)” value (Carcinogen: CYCLOPHOSPHAMIDE, 50-18-0, Dose [Inhibitor]: 35 MG/KG BW IN DRINKING WATER 5/WK FOR 20 MO SIMULTANEOUSLY WITH CARCINOGEN TREATMENT (STUDY DURATION: 20 MO), Route [Inhibitor]: ORAL, Species: RAT, Strain/Sex: SPRAGUE-DAWLEY/MALE, Target Tissue: Type of Lesion: NERVOUS TISSUE: NEOPLASM, Dose [Carcinogen]: 2.5 MG/KG BW IN DRINKING WATER 5/WK FOR 20 MO, Promoter: NONE USED) of the same molecule?
A: 14%, 15%, -7%, not calculated

Q: And the “tumour outcome (control, treated, inhibition, significance)” value (Carcinogen: CYCLOPHOSPHAMIDE, 50-18-0, Dose [Inhibitor]: 35 MG/KG BW IN DRINKING WATER 5/WK FOR 20 MO SIMULTANEOUSLY WITH CARCINOGEN TREATMENT (STUDY DURATION: 20 MO), Route [Inhibitor]: ORAL, Species: RAT, Strain/Sex: SPRAGUE-DAWLEY/MALE, Target Tissue: Type of Lesion: URINARY BLADDER: TUMOR, Dose [Carcinogen]: 2.5 MG/KG BW IN DRINKING WATER 5/WK FOR 20 MO, Promoter: NONE USED)?
A: 30%, 6%, 80%, p>0.0005*

Q: And the “tumour outcome (control, treated, inhibition, significance)” value (Carcinogen: CYCLOPHOSPHAMIDE, 50-18-0, Dose [Inhibitor]: 35 MG/KG BW IN DRINKING WATER 5/WK FOR DURATION OF STUDY SIMULTANEOUSLY WITH CARCINOGEN TREATMENT (STUDY DURATION: LIFE), Route [Inhibitor]: ORAL, Species: RAT, Strain/Sex: SPRAGUE-DAWLEY/MALE, Target Tissue: Type of Lesion: URINARY BLADDER: PAPILLOMA, CARCINOMA, Dose [Carcinogen]: 2.5 MG/KG BW IN DRINKING WATER 5/WK FOR DURATION OF STUDY, Promoter: NONE USED)?
A: 32/100 (32%), 3/50 (6%), 81%, p<0.00005*

Q: With `C=C1CC[C@H](O)C/C1=C/C=C1\CCC[C@]2(C)[C@@H]([C@H](C)CCCC(C)C)CC[C@@H]12` as the molecule, how does the “tumour outcome (control, treated, inhibition, significance)” value (Carcinogen: N-BUTYL-N-(4-HYDROXYBUTYL)NITROSAMINE, 3817-11-6, Dose [Inhibitor]: 0.002% DIET DAILY FOR 7 WK FOLLOWED BY 1 WK OF NO TREATMENT THEN 5 WK OF 0.001% DIET DAILY AND NO FURTHER TREATMENT THRO, Route [Inhibitor]: ORAL, Species: RAT, Strain/Sex: F344/MALE, Target Tissue: Type of Lesion: URINARY BLADDER: PAPILLOMA, Dose [Carcinogen]: 0.01% IN DRINKING WATER FOR 4 WK, Promoter: NONE USED) read?
A: 33%, 41%, -24%, not significant

Q: What about the “tumour outcome (control, treated, inhibition, significance)” value (Carcinogen: N-METHYL-N-NITROSOUREA, 684-93-5, Dose [Inhibitor]: 0, 3.3 UG/KG OF DIET FOR 147 D (STUDY DURATION: 150 D), Route [Inhibitor]: ORAL, Species: RAT, Strain/Sex: SPRAGUE-DAWLEY/FEMALE, Target Tissue: Type of Lesion: MAMMARY GLAND: ADENOCARCINOMA, Dose [Carcinogen]: 50 MG/KG BW ONCE 3 D BEFORE INITIAL INHIBITOR DOSE, Promoter: NONE USED) of the same molecule?
A: 25/25 (100%), 25/25 (100%), 0%, not significant

Q: And the “tumour outcome (control, treated, inhibition, significance)” value (Carcinogen: N-METHYL-N-NITROSOUREA, 684-93-5, Dose [Inhibitor]: 0, 10 UG/KG OF DIET FOR 147 D (STUDY DURATION: 150 D), Route [Inhibitor]: ORAL, Species: RAT, Strain/Sex: SPRAGUE-DAWLEY/FEMALE, Target Tissue: Type of Lesion: MAMMARY GLAND: ADENOCARCINOMA, Dose [Carcinogen]: 50 MG/KG BW ONCE 3 D BEFORE INITIAL INHIBITOR DOSE, Promoter: NONE USED)?
A: 25/25 (100%), 25/25 (100%), 0%, not significant

Q: Which “tumour outcome (control, treated, inhibition, significance)” value (Carcinogen: 7,12-DIMETHYLBENZ[A]ANTHRACENE, 57-97-6, Dose [Inhibitor]: 0, 1 MMOL 15 MINUTES AFTER EACH PROMOTER TREATMENT BEGINNING 2 WK POST CARCINOGEN (STUDY DURATION: 42 WK), Route [Inhibitor]: DERMAL, Species: MOUSE, Strain/Sex: SENCAR/FEMALE, Target Tissue: Type of Lesion: SKIN: SQUAMOUS CELL CARCINOMA, Dose [Carcinogen]: 10 NMOL IN 0.2 ML ACETONE ONCE) does the source give for `C=C(NC(=O)Cc1ccc(OS(=O)(=O)O)cc1)C(=O)O` here?
A: 48%, 25%, 48%, not calculated

Q: Which “tumour outcome (control, treated, inhibition, significance)” value (Carcinogen: 1,2-DIMETHYLHYDRAZINE DIHYDROCHLORIDE, 306-37-6, Dose [Inhibitor]: 0, 150 MG/KG BW 1/WK FOR 8 WK BEGINNING 20 D POST CARCINOGEN TREATMENT (STUDY DURATION: 26.5 WK), Route [Inhibitor]: INTRAPERITONEAL, Species: MOUSE, Strain/Sex: CF-1/FEMALE, Target Tissue: Type of Lesion: COLON: TUMOR, Dose [Carcinogen]: 20 MG/KG BW 1/WK FOR 8 WK, Promoter: NONE USED) does the source give for `CC(C)NCC(O)c1ccc(O)c(O)c1` (configuration not stated) here?
A: 10/12 (83%), 10/12 (83%), 0%, not significant

Q: And the “tumour outcome (control, treated, inhibition, significance)” value (Carcinogen: 1,2-DIMETHYLHYDRAZINE DIHYDROCHLORIDE, 306-37-6, Dose [Inhibitor]: 0, 150 MG/KG BW 1/WK FOR 12 WK ADMINISTERED 39 HR POST EACH CARCINOGEN DOSE (STUDY DURATION: 28 WK), Route [Inhibitor]: INTRAPERITONEAL, Species: MOUSE, Strain/Sex: CF-1/FEMALE, Target Tissue: Type of Lesion: COLON: TUMOR, Dose [Carcinogen]: 20 MG/KG BW 1/WK FOR 12 WK, Promoter: NONE USED)?
A: 12/12 (100%), 9/9 (100%), 0%, not significant

Q: And the “tumour outcome (control, treated, inhibition, significance)” value (Carcinogen: 1,2-DIMETHYLHYDRAZINE DIHYDROCHLORIDE, 306-37-6, Dose [Inhibitor]: 0, 150 MG/KG BW 2/WK FOR 6 WK ADMINISTERED 15 AND 39 HR AFTER EACH CARCINOGEN DOSE (STUDY DURATION: 30 WK), Route [Inhibitor]: INTRAPERITONEAL, Species: MOUSE, Strain/Sex: CF-1/FEMALE, Target Tissue: Type of Lesion: COLON: TUMOR, Dose [Carcinogen]: 20 MG/KG BW 1/WK FOR 6 WK, Promoter: NONE USED)?
A: 4/9 (44%), 0/8 (0%), 100%, not calculated

Q: And the “tumour outcome (control, treated, inhibition, significance)” value (Carcinogen: 1,2-DIMETHYLHYDRAZINE DIHYDROCHLORIDE, 306-37-6, Dose [Inhibitor]: 0, 150 MG/KG BW 2/WK FOR 12 WK ADMINISTERED 15 AND 39 HR POST EACH CARCINOGEN DOSE (STUDY DURATION: 28 WK), Route [Inhibitor]: INTRAPERITONEAL, Species: MOUSE, Strain/Sex: CF-1/FEMALE, Target Tissue: Type of Lesion: COLON: TUMOR, Dose [Carcinogen]: 20 MG/KB BW 1/WK FOR 12 WK, Promoter: NONE USED)?
A: 12/12 (100%), 8/8 (100%), 0%, not significant

Q: And the “tumour outcome (control, treated, inhibition, significance)” value (Carcinogen: AZOXYMETHANE, 25843-45-2, Dose [Inhibitor]: 0.5 MG/KG BW 1/2D IN OLIVE OIL BEGINNING 3 WK PRIOR TO FIRST CARCINOGEN DOSE (STUDY DURATION: 40 WK), Route [Inhibitor]: SUBCUTANEOUS, Species: RAT, Strain/Sex: WISTAR/MALE, Target Tissue: Type of Lesion: COLON: TUMOR, Dose [Carcinogen]: 7.4 MG/KG BW IN 0.9% SALINE SOLUTION 1/WK FOR 10 WK, Promoter: NONE USED)?
A: 18/20 (90%), 10/18 (56%), 38%, p<0.05

Q: And the “tumour outcome (control, treated, inhibition, significance)” value (Carcinogen: N-METHYL-N'-NITRO-N-NITROSOGUANIDINE, 70-25-7, Dose [Inhibitor]: 0, 0.1 MG/KG IN OLIVE OIL SUSPENSION 1/D BEGINNING 1 WK POST LAST CARCINOGEN DOSE AND CONTINUING FOR DURATION OF STUDY (, Species: RAT, Strain/Sex: WISTAR/MALE, Target Tissue: Type of Lesion: GLANDULAR STOMACH: ADENOCARCINOMA, Dose [Carcinogen]: 50 UG/ML IN DRINKING WATER FOR 25 WK, Promoter: NONE USED)?
A: 15/18 (83%), 9/20 (45%), 46%, p<0.05

Q: With `CC(C)(C)C1=CC(=O)C=C(C(C)(C)C)C1=O` as the molecule, how does the “tumour outcome (control, treated, inhibition, significance)” value (Carcinogen: 7,12-DIMETHYLBENZ[A]ANTHRACENE, 57-97-6, Dose [Inhibitor]: 0, 200 MG/KG BW/D FOR 3 WK BEGINNING 2 WK PRIOR TO CARCINOGEN DOSE (STUDY DURATION: 24 WK), Route [Inhibitor]: INTRAPERITONEAL, Species: RAT, Strain/Sex: SPRAGUE-DAWLEY/FEMALE, Target Tissue: Type of Lesion: MAMMARY GLAND: TUMOR, Dose [Carcinogen]: 33.3 MG/KG BW IN 0.25 ML CORN OIL ONCE AT 50 D OF AGE, Promoter: NONE USED) read?
A: 91%, 68%, 25%, not calculated
